Test results taken from patent US9616051B2, “Drug targets to overcome de novo drug-resistance in multiple myeloma” (H. Lee Moffitt Cancer Center and Research Institute, Inc., priority 2008, dated 2017).
“Also recorded” adds a separate entry of the source. Where two headings read alike, the source gives them in different places.

Assays:
PBMC = test: CT-Glo cytotoxicity assay, PBMC; format: cell-based; details: 72-h CT-Glo, average ± SD
Experimental: (§1) The molecules with the highest docking scores were assayed for IC50 values. Cultures were tested for cytotoxicity using the CellTiter-Glo assay (CT-Glo cytotoxicity assay; Promega, Madison, Wis.), a luminescence-based homogeneous method for determining the number of viable cells in culture based on quantitation of the ATP present, which signals the presence of metabolically active cells (Corsino, et al., A novel class of cyclin-dependent kinase inhibitors identified by molecular docking act through a unique mechanism. J Biol Chem 2009; 284: 29945-55; Homsi, et al., Src activation in melanoma and Src inhibitors as therapeutic agents in melanoma. Melanoma Res 2009; 19: 167-75). All cells were assayed at log-phase growth conditions. Luminescence was measured with a Synergy 4 microplate reader (Bio-Tek Instruments, Inc., Winooski, Vt.). IC50 values were determined using a sigmoidal equilibrium model regression using XLfit version 5.2 (ID Business Solutions Ltd., Surrey, UK) (Corsino, et al., A novel class of cyclin-dependent kinase inhibitors identified by molecular docking act through a unique mechanism. J Biol Chem 2009; 284: 29945-55).

SK-UT = test: CT-Glo cytotoxicity assay, SK-UT cells; format: cell-based; details: 72-h CT-Glo, average ± SD
Experimental: as §1

Kg-1a = test: CT-Glo cytotoxicity assay, Kg-1a cells; format: cell-based; details: 72-h CT-Glo
Experimental: as §1

FLOW = test: CT-Glo cytotoxicity assay, FLOW cells; format: cell-based; details: 72-h CT-Glo, average ± SD
Experimental: as §1

HL-60 = test: CT-Glo cytotoxicity assay, HL-60 cells; format: cell-based; details: 72-h CT-Glo
Experimental: as §1

[1] = test system: high-density MM cells (H929); test: Cleaved caspase 3 apoptosis assay, sensitization to doxorubicin; details: for Sensitization of high-density MM cells to doxorubicin / synergism: 25 μM NES inhibitor, doxorubicin 2 μM; for Fold-Increased sensitization to dox: dox/drug (dox 2 μM) divided by dox alone
RPMI-8226 (8226) = test: CT-Glo cytotoxicity assay, 8226 cells; format: cell-based, human; details: 8226 cells, 72-h CT-Glo, log-phase (low-density), average ± SD, read-out: IC50
Source text: (§2) Compounds identified in Example 1 as the top scoring potential inhibitors for each of the two NES (20 each) were obtained from NCI and structures of these molecules confirmed using NMR and mass spectroscopy analysis, seen in FIGS. 4(A)-(C) and 5(A)-(D). The potential inhibitors were followed up using in vitro model cell cultures. MM cell lines NCI-H929 (H929) and RPMI-8226 (8226) were obtained from and tested for authenticity by the American Type Culture Collection (Manassas, Va.). All cell lines were grown as described previously (Turner, et al., Human topoisomerase IIalpha nuclear export is mediated by two CRM-1-dependent nuclear export signals. J Cell Sci 2004; 117: 3061-71).
as §1

NCI-H929 (H929) = test: CT-Glo cytotoxicity assay, H929 cells; format: cell-based, human; details: average ± SD
Source text: as §2, §1

MCF-7 = test: CT-Glo cytotoxicity assay, MCF-7 cells; format: cell-based; details: average ± SD
Experimental: as §1

topo IIα [2] = target: T1, topo IIα (Homo sapiens, UniProt P11388); test: Nuclear-cytoplasmic fractionation and Western blot for topo IIα; format: cell-based; details: RPMI-H929 cells, 100 μM, 24 hours, relative to untreated controls
T1 construct: effect on the intracellular location of topo IIα in treated MM cells; endogenous in cells; host or cells: human multiple myeloma cells NCI-H929
T1 sequence (P11388 whole entry): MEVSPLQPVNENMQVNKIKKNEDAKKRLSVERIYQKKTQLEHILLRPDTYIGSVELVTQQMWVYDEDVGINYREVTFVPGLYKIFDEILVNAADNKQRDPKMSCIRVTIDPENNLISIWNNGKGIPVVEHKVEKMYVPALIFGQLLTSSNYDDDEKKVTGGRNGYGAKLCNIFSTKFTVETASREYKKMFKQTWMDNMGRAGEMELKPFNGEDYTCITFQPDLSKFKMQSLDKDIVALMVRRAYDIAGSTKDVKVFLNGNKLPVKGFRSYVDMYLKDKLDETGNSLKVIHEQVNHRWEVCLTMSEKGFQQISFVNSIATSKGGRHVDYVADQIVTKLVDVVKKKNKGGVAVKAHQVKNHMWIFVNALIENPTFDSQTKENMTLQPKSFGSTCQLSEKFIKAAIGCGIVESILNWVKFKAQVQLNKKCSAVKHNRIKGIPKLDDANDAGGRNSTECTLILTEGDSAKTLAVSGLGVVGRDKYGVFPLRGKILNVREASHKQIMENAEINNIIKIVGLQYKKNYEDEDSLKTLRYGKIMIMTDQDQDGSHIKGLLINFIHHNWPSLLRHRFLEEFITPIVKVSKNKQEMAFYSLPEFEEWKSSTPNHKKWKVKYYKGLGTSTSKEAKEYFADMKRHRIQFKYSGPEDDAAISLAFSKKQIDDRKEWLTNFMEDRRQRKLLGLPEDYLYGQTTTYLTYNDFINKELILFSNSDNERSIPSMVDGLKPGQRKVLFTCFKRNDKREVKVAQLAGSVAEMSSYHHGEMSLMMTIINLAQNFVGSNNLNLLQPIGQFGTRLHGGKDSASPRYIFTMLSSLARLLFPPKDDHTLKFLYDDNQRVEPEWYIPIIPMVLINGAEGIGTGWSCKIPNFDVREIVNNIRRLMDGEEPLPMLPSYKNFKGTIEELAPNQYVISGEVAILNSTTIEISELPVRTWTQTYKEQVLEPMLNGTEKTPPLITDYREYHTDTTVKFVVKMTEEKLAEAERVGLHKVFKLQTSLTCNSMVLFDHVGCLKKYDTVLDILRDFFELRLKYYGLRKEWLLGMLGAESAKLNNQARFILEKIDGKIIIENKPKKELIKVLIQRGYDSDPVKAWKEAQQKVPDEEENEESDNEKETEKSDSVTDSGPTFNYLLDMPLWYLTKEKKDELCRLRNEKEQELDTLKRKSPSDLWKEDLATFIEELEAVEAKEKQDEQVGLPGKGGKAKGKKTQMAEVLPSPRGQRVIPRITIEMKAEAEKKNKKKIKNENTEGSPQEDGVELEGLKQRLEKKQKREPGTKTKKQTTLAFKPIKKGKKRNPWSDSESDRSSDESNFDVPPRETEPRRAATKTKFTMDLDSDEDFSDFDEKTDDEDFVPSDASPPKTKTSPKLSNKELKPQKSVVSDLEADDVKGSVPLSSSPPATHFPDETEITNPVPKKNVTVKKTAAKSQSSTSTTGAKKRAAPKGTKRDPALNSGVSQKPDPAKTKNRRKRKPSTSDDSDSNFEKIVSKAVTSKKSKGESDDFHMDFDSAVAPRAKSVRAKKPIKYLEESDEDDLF

p53 = p53 nuclear export in low-density myeloma cells (nuclear fraction Western blot); format: cell-based, human; details: H929 at low density (log growth), 25 μM, 20 hours
Experimental: FIG. 14 is a blot of lead compounds tested to determine if nuclear export inhibition was specific to topo IIα protein. p53 was cycled from the nucleus into the cytoplasm in MM cells cultured at log growth conditions. Cells grown at log-phase concentrations were treated with the lead NES inhibitors (25 μM) or a leptomycin control for 20 hours and chemically fractionated. Nuclei were assayed by SDS-PAGE Western blot analysis for p53 protein (anti-p53 (DO-1), Santa Cruz Biotech, Inc). […] Lamin A/C (anti-lamin A/C, BD Pharmingen) is shown as a loading control.
Cells grown at low concentrations were treated with the lead NES inhibitors (25 μM) or a leptomycin B (5 nM) control for 20 hours and chemically fractionated. Nuclei were assayed by SDS-PAGE Western blot analysis for p53 protein.

topo IIα [3] = target: T1, topo IIα; test: Immunofluorescence microscopy of intracellular location of topo IIα; format: cell-based; details: 25 μM NES inhibitor; for Nuclear export of topo IIα by immunofluorescence: 20 hours, high-density (plateau) MM cells; for Fold-increase nuclear topo IIα: H929 cells, nucleus v cytoplasm fluorescence vs untreated high-density controls
Experimental: Slides were viewed with a fully automated, upright Zeiss Axio-ImagerZ.1 microscope (Carl Zeiss A G, Oberkochen, Germany). Briefly, the DAPI image was used as a mask to segment the nuclear region from the Alexa 594 image. The remaining portion of the Alexa 594 image represents the cytosol, and individual nucleus and cytosol images were analyzed.
H929 cells were mock treated with 0.1% DMSO in media or with 25 μM of NES inhibitor. The high density control cells, seen in FIG. 9(A) show high levels of topo II staining outside the nucleus, evidencing export of topo II from the nucleus.

topo IIα [4] = target: T1, topo IIα; test: Nuclear-cytoplasmic fractionation and Western blot for topo IIα; format: cell-based; details: high-density RPMI-H929 cells, 25 μM, FIG. 13 legend
Experimental: FIGS. 13(A) and (B) are blots from nuclear (nuc)-cytoplasmic (cyto) fractionation of high-density MM cells (n=2). […] Human myeloma RPMI-H929 cells were treated for 24 hours. Cells were then chemically separated into nuclear and cytoplasmic fractions.
Human myeloma cells were placed at plateau concentrations (4×10^6 cells/ml), and NES inhibitors were added at 25 μM for 20 hours. Cells were collected, washed in PBS, and fractionated by a method adapted from Li et al. (Li Y, Bor Y C, Misawa Y, Xue Y, Rekosh D, Hammarskjold M L. An intron with a constitutive transport element is retained in a Tap messenger RNA. Nature 2006; 443: 234-7). Separated fractions containing nuclei or precipitated cytosol were dissolved in 2% SDS buffer and assayed by SDS-PAGE Western blot analysis. Blots were probed with an anti-topo IIα Kis1 antibody (Millipore Corp.). […] Cells grown at log-phase concentrations were also fractionated. After MM cells were treated with NCI-9138 at 25 μM for 20 hours, CRM1-topo IIα complexes were isolated from cells by immunoprecipitation using a combination of both protein A and protein G magnetic beads according to the manufacturer's protocol (Miltenyi Biotec, Cologne, Germany). Co-immunoprecipitation was performed with 2 μg of anti-CRM1 antibody (Santa Cruz Biotechnology, Inc., Santa Cruz, Calif.). Immunoprecipitation samples were separated by SDS-PAGE, transferred to nitrocellulose membranes, and probed with anti-topo IIα Kis1 antibody (Millipore, Corp., Billerica, Mass.) and anti-mouse horseradish peroxidase secondary antibody.

WI-38 = test: CT-Glo cytotoxicity assay, WI-38 cells; format: cell-based; details: 72-h CT-Glo
Experimental: as §1

topo IIα [5] = details: cited from earlier work
[6] = in vivo; cited from earlier work
[7] = for 1 hour; cited from earlier work
[8] = Homo sapiens, NCI-H929, 72-h CT-Glo
[9] = Homo sapiens, MCF7, 72-h CT-Glo

Molecule	IC50 (SK-UT)	IC50 (FLOW)	Sensitization of high-density MM cells to doxorubicin / synergism [1]	Fold-Increased sensitization to dox [1]	Cytoplasmic level / nuclear localization of topo IIα, fractionation Western blot (topo IIα [2])	Nuclear export of p53 (p53)	Nuclear export of topo IIα by immunofluorescence (topo IIα [3])	Export of topo IIα, nuclear-cytoplasmic fractionation (topo IIα [4])	other results
Clc1cc(Cl)c(C[N+]23CN4CN(CN(C4)C2)C3)cc1Cl [NCI-155877, 1-(2,4,5-trichlorobenzyl)-15,3,5,7-tetraazatricyclo[3.3.1.1~3,7~]decane]	50.4 µM	56.8 µM	synergized with the topo II inhibitor doxorubicin	2.82 ± 1.18 fold	did not significantly reduce the level of cytoplasmic topo IIα	did not prevent export of p53	overlapping staining of topo II with DAPI	smaller or little effect on topo II nucleus export inhibition	IC50 (PBMC): 37.2 µM; IC50 (Kg-1a; Homo sapiens): 31.4 µM; IC50 (HL-60; Homo sapiens): 20.4 µM; IC50 (RPMI-8226 (8226); Homo sapiens, RPMI-8226): 19.5 ± 5.4 µM; IC50 (NCI-H929 (H929); [8]): 33.6 µM; IC50 (MCF-7; [9]): 37.1 µM; Fold-increase nuclear topo IIα (topo IIα [3]): 3.92 fold; IC50 (WI-38; Homo sapiens): 136 µM
O=C(C[N+]12CN3CN(CN(C3)C1)C2)c1ccc(Br)cc1 [NCI-32237, 1-(4-bromophenyl)-2-(15,3,5,7-tetraazatricyclo[3.3.1.1~3,7~]dec-1-yl)ethanone]	–	–	–	–	did not affect nuclear export of topo II	–	–	did not affect nuclear export of topo II	–
Ratjadone C [reference compound]	–	–	–	–	–	–	–	prevented nuclear export	–
O=C(Nc1ccc(C2=NCCN2)cc1)c1ccc(C(=O)Nc2ccc(C3=NCCN3)cc2)c([N+](=O)[O-])c1 [NCI-35847, N1,N4-bis(4-(4,5-dihydro-1H-imidazol-2-yl)phenyl)-2-(hydroxy(oxido)amino)terephthalamide]	55.3 µM	62.8 µM	synergized with the topo II inhibitor doxorubicin; also recorded: significantly (p<0.05) sensitize high density MM cells to doxorubicin	2.65 ± 0.90 fold	reduced cytoplasmic levels of topo IIα equivalent to that produced by the CRM-1 inhibitor ratjadone C	did not prevent export of p53	prevent nuclear export of Topo IIα; also recorded: overlapping staining of topo II with DAPI	strongly blocked export of topo IIα	IC50 (Kg-1a): 73.8 µM; IC50 (HL-60): 36.5 µM; IC50 (RPMI-8226 (8226)): 7.2 ± 1.4 µM; IC50 (NCI-H929 (H929); 72-h CT-Glo): 13.9 µM; IC50 (MCF-7; 72-h CT-Glo): 68.5 µM; Fold-increase nuclear topo IIα (topo IIα [3]): 2.81 fold; IC50 (WI-38): 199 µM
CCC(=C/[C@H](C)C/C=C/C(C)=C/[C@@H](C)C(=O)[C@@H](C)[C@H](O)[C@@H](C)C/C(C)=C/C(=O)O)/C=C/[C@@H]1OC(=O)C=C[C@@H]1C [leptomycin B]	–	–	–	–	–	–	–	–	Export mediated by topo IIα NES site A and site B (topo IIα [5]): blocked; Toxicity in human phase I trial [6]: acute relative toxicities; Concentration with acute toxicity in vitro [7]: < 5 nM
O/N=C(/C[N+]12CN3CN(CN(C3)C1)C2)c1ccc(I)cc1 [NCI-35024, 1-(4-iodophenyl)-2-(15,3,5,7-tetraazatricyclo[3.3.1.1~3,7~]dec-1-yl)ethanone oxime]	–	–	significantly (p<0.05) sensitize high density MM cells to doxorubicin	–	–	–	prevent nuclear export of Topo IIα	–	–
O=C(C[N+]12CN3CN(CN(C3)C1)C2)c1ccc2ccccc2c1 [NCI-36400, 1-(2-naphthyl)-2-(15,3,5,7-tetraazatricyclo[3.3.1.1~3,7~]dec-1-yl)ethanone]	–	–	significantly (p<0.05) sensitize high density MM cells to doxorubicin	–	–	–	prevent nuclear export of Topo IIα	–	–
Brc1ccc(C[N+]23CN4CN(CN(C4)C2)C3)cc1 [NCI-80640, 1-(4-bromobenzyl)-15,3,5,7-tetraazatricyclo[3.3.1.1~3,7~]decane]	25.5 µM	35.6 µM	synergized with the topo II inhibitor doxorubicin	2.42 ± 1.09 fold	reduced cytoplasmic levels of topo IIα equivalent to that produced by the CRM-1 inhibitor ratjadone C	significantly inhibit nuclear export of p53	overlapping staining of topo II with DAPI	smaller or little effect on topo II nucleus export inhibition	IC50 (PBMC): 16.4 µM; IC50 (Kg-1a; Homo sapiens): 15.2 µM; IC50 (HL-60; Homo sapiens): 11.9 µM; IC50 (RPMI-8226 (8226); Homo sapiens, RPMI-8226): 12 ± 4.2 µM; IC50 (NCI-H929 (H929); [8]): 16.2 µM; IC50 (MCF-7; [9]): 25.9 µM; IC50 (WI-38; Homo sapiens): 56.3 µM
